Two compounds from ChEMBL document CHEMBL5537135, “Novel antimicrobial peptides modified with fluorinated sulfono-γ-AA having high stability and targeting multidrug-resistant bacteria infections” (Eur J Med Chem, 2024) can be followed below.

Active and inactive are the calls of the source. No cut-off for these calls is given here. Numbered stars: 1 amine (or outer) side, 2 acyl side, 3 side chain; on linkers, the order of the positions; unused ones are H or OH. Square brackets hold non-standard residues; d marks the D form. Peptide text beside a SMILES is read from it. * marks the point of attachment. X3 = CC(C)C[C@@H](CN(CC(N)=O)S(=O)(=O)c1ccc(C(F)(F)F)cc1)N*; X2 = CC(C)C[C@H](N)CN(CC(=O)[*:2])[*:1]; X1 = O=S(=O)(c1ccc(C(F)(F)F)cc1)*

Data set [1] deals with Pseudomonas aeruginosa. In words: Synergistic antibacterial activity against multidrug-resistant Pseudomonas aeruginosa 124 assessed as fractional inhibitory concentration index in presence of ceftazidime by checkerboard assay. Format: functional.
The subject of data set [2] is Staphylococcus aureus. Nature of the data set: Synergistic antibacterial activity against methicillin-resistant Staphylococcus aureus S5 assessed as fractional inhibitory concentration index in presence of polymyxin B by checkerboard assay. Format: functional.
In data set [3] the test system is Pseudomonas aeruginosa. In words: Synergistic antibacterial activity against multidrug-resistant Pseudomonas aeruginosa 124 assessed as fractional inhibitory concentration index in presence of polymyxin B by checkerboard assay. Format: functional.
The subject of data set [4] is Cell membrane. In words: Induction of cytoplasmic membrane depolarization in methicillin-resistant Staphylococcus aureus ATCC 33591 assessed as increase in fluorescence intensity at 2 times MIC by DiSC35 dye-based fluorescence assay.
In data set [5] the test system is Staphylococcus aureus. In words: Antibacterial activity against methicillin-resistant Staphylococcus aureus ATCC 33591 infected in full-thickness wound BALB/c mouse model assessed as wound healing at 0.25 to 1 mg/kg, ip administered for 1 to 48 hrs and measured after 10 days. Format: functional, organism-based. Particulars: dose 0.25-1 mg/kg, time 1-288 hrs.
Data set [6] is described as follows: Toxicity in mouse assessed as animal survival at 20 mg/kg, ip measured for 7 days. Particulars: in vivo, 168 h, time 7 day. Format: organism-based.
Data set [7] relates to Pseudomonas aeruginosa. Nature of the data set: Antibacterial activity against Pseudomonas aeruginosa ATCC 27853 infected in C57BL/6 mouse pneumonia model assessed as decrease in IL-1beta level in lung at 2.5 to 10 mg/kg, ip administered for 1 to 48 hrs and measured after 3 days. Particulars: dose 2.5-10 mg/kg, time 1-120 hrs. Format: functional, organism-based.
Data set [8] concerns Staphylococcus aureus. In words: Antibacterial activity against methicillin-resistant Staphylococcus aureus ATCC 33591 infected in full-thickness wound BALB/c mouse model at 0.25 to 1 mg/kg, ip administered for 1 to 48 hrs and measured after 3 days. Particulars: dose 0.25-1 mg/kg, time 1-120 hrs. Format: functional, organism-based.
The test system of data set [9] is Cell membrane. In words: Induction of membrane disruption in Staphylococcus aureus ATCC 33591 assessed as membrane lysis at 2 to 4 times MIC incubated for 24 hrs by SEM analysis. Format: cell membranes.
Data set [10] in a line: Toxicity in mouse assessed as kidney lesion at 20 mg/kg, ip measured for 30 to 60 mins by H and E staining based analysis. Particulars: in vivo, time 30-60 min. Format: organism-based.
Data set [11] relates to Cell membrane. Nature of the data set: Induction of membrane depolarization in methicillin-resistant Staphylococcus aureus ATCC 33591 assessed as increase in fluorescence intensity by DiSC35 dye-based fluorescence assay. Format: cell membranes.
For data set [12], the system named is Cell membrane. In words: Induction of membrane disruption in Pseudomonas aeruginosa ATCC 27853 assessed as membrane lysis at 2 to 4 times MIC incubated for 24 hrs by SEM analysis. Format: cell membranes.
The nature of data set [13]: Toxicity in mouse assessed as liver lesion at 20 mg/kg, ip measured for 30 to 60 mins by H and E staining based analysis. The settings on record: in vivo, time 30-60 min. Format: organism-based.
Data set [14] concerns Staphylococcus aureus. In words: Antibacterial activity against methicillin-resistant Staphylococcus aureus ATCC 33591 infected in full-thickness wound BALB/c mouse model assessed as log reduction in bacterial load at 0.25 mg/kg, ip administered for 1 to 48 hrs and measured after 3 days by SEM analysis. Format: functional. The settings on record: time 1-120 hrs.
Data set [15] concerns Cell membrane. In words: Induction of membrane disruption in Pseudomonas aeruginosa ATCC 27853 assessed as membrane blebbing at 2 to 4 times MIC incubated for 24 hrs by SEM analysis. Format: cell membranes.
Data set [16] relates to Cell membrane. Nature of the data set: Induction of membrane depolarization in Pseudomonas aeruginosa ATCC 27853 assessed as increase in fluorescence intensity by DiSC35 dye-based fluorescence assay. Format: cell membranes.
A short description of data set [17]: Toxicity in mouse assessed as spleen lesion at 20 mg/kg, ip measured for 30 to 60 mins by H and E staining based analysis. Format: organism-based. The settings on record: in vivo, time 30-60 min.
Data set [18] relates to Pseudomonas aeruginosa. In words: Antibacterial activity against Pseudomonas aeruginosa ATCC 27853 infected in C57BL/6 mouse pneumonia model assessed as […] at 2.5 to 10 mg/kg, ip administered for 1 to 48 hrs and measured after 3 days by H and E staining based analysis. Format: functional, organism-based. Particulars: dose 2.5-10 mg/kg, time 1-120 hrs.
Data set [19] can be described thus: Toxicity in mouse assessed as heart lesion at 20 mg/kg, ip measured for 30 to 60 mins by H and E staining based analysis. Format: organism-based. Particulars: in vivo, time 30-60 min.
Data set [20] relates to Staphylococcus aureus. In words: Antibacterial activity against methicillin-resistant Staphylococcus aureus ATCC 33591 infected in full-thickness wound BALB/c mouse model assessed as reduction in IL-6 level in skin at 0.25 to 1 mg/kg, ip administered for 1 to 48 hrs and measured after 3 days. Format: functional, organism-based. Particulars: dose 0.25-1 mg/kg, time 1-120 hrs.

Data set [21] concerns Staphylococcus aureus. Nature of the data set: Antibacterial activity against methicillin-resistant Staphylococcus aureus ATCC 33591 infected in full-thickness wound BALB/c mouse model assessed as reduction in TNF-alpha level in skin at 0.25 to 1 mg/kg, ip administered for 1 to 48 hrs and measured after 3 days. Format: functional, organism-based. Particulars: dose 0.25-1 mg/kg, time 1-120 hrs.

For `CC(C)C[C@@H](CN(CC(N)=O)S(=O)(=O)c1ccc(C(F)(F)F)cc1)NC(=O)[C@H](CCCCN)NC(=O)[C@H](CCCCN)NC(=O)[C@H](CC(C)C)NC(=O)[C@H](CC(C)C)NC(=O)[C@H](CCCCN)NC(=O)[C@H](CC(C)C)NC(=O)[C@@H](N)Cc1ccccc1` (H-FLKLLKK-X3), the “fractional inhibitory concentration index (FICI)” value in the data set with Pseudomonas aeruginosa [1], with Staphylococcus aureus [2] and in the data set on Pseudomonas aeruginosa [3] was 0.75 each time. The result in the data set with Cell membrane [4] was Active.
As to `CC(C)C[C@H](N)CN(CC(=O)N[C@@H](CCCCN)C(=O)N[C@@H](CC(C)C)C(=O)N[C@@H](CC(C)C)C(=O)N[C@@H](CCCCN)C(=O)N[C@@H](CCCCN)C(=O)N[C@@H](CC(C)C)C(=O)N[C@@H](CC(C)C)C(N)=O)S(=O)(=O)c1ccc(C(F)(F)F)cc1` (X1-[X2]KLLKKLL-NH2), the outcome with Staphylococcus aureus [5], with Pseudomonas aeruginosa [7], in the data set on Staphylococcus aureus [8], in the data set on Cell membrane [9], with Cell membrane [12] and in the data set on Cell membrane [15] was Active. In addition, the result with Pseudomonas aeruginosa [18], with Staphylococcus aureus [20] and in the data set with Staphylococcus aureus [21] was Active. Moreover, the Activity entry in [6] was “Non-Toxic”; in data set [10], “Non-Toxic”; with Cell membrane [11], “Dose-Dependent Effect”; in data set [13], “Non-Toxic”; with Cell membrane [16], “Dose-Dependent Effect”; in [17] it was “Non-Toxic”. In addition, the Activity entry in data set [19] is reported as “Non-Toxic”. The “log(activity)” value in the data set on Staphylococcus aureus [14] is on record as 0.82.
